From publication PMC9030223, “MBP-11901 Inhibits Tumor Growth of Hepatocellular Carcinoma through Multitargeted Inhibition of Receptor Tyrosine Kinases” (Cancers, 2022)
Like-named read-outs stand apart in the source and are kept apart here.

Legend:
MDA-MB-231 = experiment: CCK-8 cell proliferation/cytotoxicity assay; type: cell-based; details: Homo sapiens, MDA-MB-231, 24 h
HepG2 cells = experiment: Colony formation assay; type: cell-based, human
Procedure: HepG2 cells were seeded in a 6-well plate at a density of 2 × 10^4 cells/well and incubated for 24 h. Cells were treated with MBP-11901 and sorafenib for 2 h and media was changed with fresh one. Cells were incubated for 8 d and the medium was replaced once every 2–3 d. The medium was carefully removed, cells were washed with PBS, and fixed with 100% methanol for 30 min. After removing methanol, cells were stained with 0.5% (w/v) crystal violet for 30 min, and washed with tap water. The plate was dried at 25 °C and images were captured under a microscope (Nikon Eclipse Ts2, Tokyo, Japan). The stained area was automatically measured using ImageJ. This experiment was independently performed 3 times. The area of the colony was calculated as a percentage of the total area of the well.

[1] = tested on: phosphorylation of FLT3, VEGFR2, c-KIT, PDGFRβ and downstream signals in HepG2 cells; experiment: Western blot of kinase phosphorylation; type: cell-based, human; details: HepG2, exposure 10 to 120 min, concentration-dependent
Procedure: HepG2 cells were seeded in a 60 mm^2 culture dish at a density of 1.5 × 10^6 cells/dish and incubated for 24 h. […] Cells were harvested and protein extraction and Western blotting methods were performed as previously described. Membranes were incubated using the following diluted primary antibodies; PARP (1:1000 dilution), caspase-3 (1:1000 dilution), cleaved caspase-3 (1:1000 dilution), pFLT3 (1:500 dilution), Ras (1:1000 dilution), pc-Raf (1:1000 dilution), pMEK1/2 (1:1000 dilution), pERK1/2 (1:1000 dilution), pAKT (1:1000 dilution), pmTOR (1:1000 dilution), pVEGFR2 (1:1000 dilution), pPDGFR β (1:2000 dilution), and β-actin (1:1000 dilution) in Tris-HCl-based buffer containing 0.2% Tween-20 (T1027, Biosesang, Seongnam, Korea) (TBS-T; pH 7.5). Membranes were then incubated with horseradish-conjugated secondary antibodies (1:5000, Cell Signaling Technologies, Beverly, MA, USA) for 1 h at 25 °C. After washing with TBS-T, immunoreactive bands were visualized using the chemiluminescence western imaging system (Supernova-Q1800TM, Centronics, Daejeon, Korea). Band intensities were measured using ImageJ (Version 1.50i; US National Institutes of Health, Bethesda, MD, USA) and were normalized to β-actin.

Hep3B xenograft tumor = experiment: Hep3B subcutaneous xenograft; type: in vivo, mouse; details: once every 2 d, 12 administrations
Excerpt: (§1) We further verified the effectiveness of MBP-11901 by constructing a mouse model in which Hep3B and Huh-7 were subcutaneously transplanted in addition to the human liver cancer cell line HepG2. In the case of Hep3B, the administration was initiated at a tumor volume of about 300 mm^3, once every 2 d, and the experiment was terminated after a total of 12 administrations (Figure S5). […] In contrast, tumors had completely disappeared in 1 out of 6 animals in the MBP-11901 group; 1 had only a trace of a tumor measuring approximately 30 mm^3, whereas the average tumor volume in the 6 animals was approximately 100 mm^3. […] Unlike Nexavar®, there were no side-effects relating to drug resistance or rapid tumor growth.

Huh-7 xenograft tumor = experiment: Huh-7 subcutaneous xenograft; type: in vivo, mouse; details: Huh-7 subcutaneously implanted model
Excerpt: as §1

FLT3(D835H) = target: T1, FLT3(D835H) (Homo sapiens, UniProt P36888, D835H); experiment: KINOMEscan competition binding; details: 10000 nM; lower = stronger binding; read-out: % Control
T1 construct: purchased Eurofins DiscoverX Corporation
Procedure: (§2) The profiling of MBP-11901 against a panel of 468 kinases was performed by DiscoverX using KINOMEscan technology, an active-site-dependent competition-binding assay (Eurofins DiscoverX Corporation, San Diego, CA, USA). Binding constants (Kd) were calculated by DiscoverX using KdELECT technology, a widely used assay for comparing selectivity across the kinome. The DiscoverX platform reports the thermodynamic Kd to facilitate direct comparison of inhibitor affinity across the kinome, independent of ATP concentration.

FLT3(D835V) = target: T2, FLT3(D835V) (Homo sapiens, UniProt P36888, D835V); experiment: KINOMEscan competition binding; details: 10000 nM; lower = stronger binding; read-out: % Control
T2 construct: purchased Eurofins DiscoverX Corporation
Procedure: as §2

FLT3(D835Y) = target: T3, FLT3(D835Y) (Homo sapiens, UniProt P36888, D835Y); experiment: KINOMEscan competition binding; details: 10000 nM; lower = stronger binding; read-out: % Control
T3 construct: purchased Eurofins DiscoverX Corporation
Procedure: as §2

FLT3(K663Q) = target: T4, FLT3(K663Q) (Homo sapiens, UniProt P36888, K663Q); experiment: KINOMEscan competition binding; details: 10000 nM; lower = stronger binding; read-out: % Control
T4 construct: purchased Eurofins DiscoverX Corporation
Procedure: as §2

FLT3(N841I) = target: T5, FLT3(N841I) (Homo sapiens, UniProt P36888, N841I); experiment: KINOMEscan competition binding; details: 10000 nM; lower = stronger binding; read-out: % Control
T5 construct: purchased Eurofins DiscoverX Corporation
Procedure: as §2

FLT3- autoinhibited = target: T6, FLT3- autoinhibited (Homo sapiens, UniProt P36888); experiment: KINOMEscan competition binding; details: 10000 nM; lower = stronger binding; read-out: % Control
T6 construct: purchased Eurofins DiscoverX Corporation
Procedure: as §2

FLT3 = target: T7, FLT3 (Homo sapiens, UniProt P36888); experiment: KINOMEscan competition binding / KdELECT
T7 construct: purchased Eurofins DiscoverX Corporation
Procedure: as §2

MAP4K2 = target: T8, MAP4K2 (Homo sapiens, UniProt Q12851); experiment: KINOMEscan competition binding / KdELECT
T8 construct: purchased Eurofins DiscoverX Corporation
Procedure: as §2

MEK5 = target: T9, MEK5 (Homo sapiens, UniProt Q13163); experiment: KINOMEscan competition binding / KdELECT
T9 construct: purchased Eurofins DiscoverX Corporation
Procedure: as §2

PDGFRβ = target: T10, PDGFRβ (Homo sapiens, UniProt P09619); experiment: KINOMEscan competition binding / KdELECT
T10 construct: purchased Eurofins DiscoverX Corporation
Procedure: as §2

VEGFR2 = target: T11, VEGFR2 (Homo sapiens, UniProt P35968); experiment: KINOMEscan competition binding / KdELECT
T11 construct: purchased Eurofins DiscoverX Corporation
Procedure: as §2

HepG2 xenograft tumor = details: for Tumor growth inhibition rate (%): 42 d (calculated on day 41); for Body weight loss rate (%): day 41
[2] = 10000 nM, lower = stronger binding, read-out: % Control

T8 sequence (Q12851 whole entry): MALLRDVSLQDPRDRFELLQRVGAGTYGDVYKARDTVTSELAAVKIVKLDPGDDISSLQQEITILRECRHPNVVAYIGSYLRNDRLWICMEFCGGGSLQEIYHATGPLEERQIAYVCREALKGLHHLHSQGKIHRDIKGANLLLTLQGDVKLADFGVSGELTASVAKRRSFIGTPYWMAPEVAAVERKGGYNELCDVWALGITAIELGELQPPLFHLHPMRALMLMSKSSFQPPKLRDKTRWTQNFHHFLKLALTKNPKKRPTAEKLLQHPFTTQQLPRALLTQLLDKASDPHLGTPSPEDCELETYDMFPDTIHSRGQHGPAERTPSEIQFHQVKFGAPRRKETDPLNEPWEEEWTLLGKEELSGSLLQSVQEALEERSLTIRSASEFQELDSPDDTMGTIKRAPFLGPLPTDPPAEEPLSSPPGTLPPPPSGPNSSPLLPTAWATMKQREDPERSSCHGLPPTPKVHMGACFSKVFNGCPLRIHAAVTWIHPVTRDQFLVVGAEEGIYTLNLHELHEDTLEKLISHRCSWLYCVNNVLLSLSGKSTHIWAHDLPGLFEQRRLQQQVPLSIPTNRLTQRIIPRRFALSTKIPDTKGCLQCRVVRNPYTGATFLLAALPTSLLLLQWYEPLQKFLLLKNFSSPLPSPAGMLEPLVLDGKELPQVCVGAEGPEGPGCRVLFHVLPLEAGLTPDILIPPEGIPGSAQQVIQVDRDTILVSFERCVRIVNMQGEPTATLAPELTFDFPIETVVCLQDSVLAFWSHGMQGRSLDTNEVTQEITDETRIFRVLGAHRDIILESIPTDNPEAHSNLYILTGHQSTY
T10 sequence (P09619 33-1106): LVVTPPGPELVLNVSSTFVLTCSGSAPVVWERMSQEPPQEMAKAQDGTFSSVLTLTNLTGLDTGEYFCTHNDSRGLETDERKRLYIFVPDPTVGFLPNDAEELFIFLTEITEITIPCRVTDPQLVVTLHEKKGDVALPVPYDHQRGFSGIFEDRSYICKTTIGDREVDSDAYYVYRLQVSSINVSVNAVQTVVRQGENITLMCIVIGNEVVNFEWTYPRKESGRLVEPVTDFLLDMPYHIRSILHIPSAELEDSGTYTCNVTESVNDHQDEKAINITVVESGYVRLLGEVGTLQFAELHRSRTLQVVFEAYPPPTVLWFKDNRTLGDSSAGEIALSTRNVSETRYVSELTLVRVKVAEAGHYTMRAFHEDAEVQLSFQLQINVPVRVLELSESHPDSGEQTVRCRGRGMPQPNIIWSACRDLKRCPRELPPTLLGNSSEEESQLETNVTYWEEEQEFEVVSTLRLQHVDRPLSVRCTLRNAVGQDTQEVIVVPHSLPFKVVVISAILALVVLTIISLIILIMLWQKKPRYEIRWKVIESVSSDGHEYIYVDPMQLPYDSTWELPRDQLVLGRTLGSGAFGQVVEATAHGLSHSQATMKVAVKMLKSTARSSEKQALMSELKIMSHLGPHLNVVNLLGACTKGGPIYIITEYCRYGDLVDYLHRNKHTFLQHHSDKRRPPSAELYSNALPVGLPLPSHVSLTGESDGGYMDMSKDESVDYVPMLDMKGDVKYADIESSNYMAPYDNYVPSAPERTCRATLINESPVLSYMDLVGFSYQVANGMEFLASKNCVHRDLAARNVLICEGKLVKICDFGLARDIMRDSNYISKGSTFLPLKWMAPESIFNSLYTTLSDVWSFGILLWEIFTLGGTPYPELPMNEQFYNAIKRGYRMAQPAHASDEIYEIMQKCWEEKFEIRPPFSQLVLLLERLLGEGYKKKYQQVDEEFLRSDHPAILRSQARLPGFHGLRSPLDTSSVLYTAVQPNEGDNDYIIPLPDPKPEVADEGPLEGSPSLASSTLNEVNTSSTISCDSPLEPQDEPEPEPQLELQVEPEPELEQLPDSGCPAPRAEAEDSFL
T9 sequence (Q13163 whole entry): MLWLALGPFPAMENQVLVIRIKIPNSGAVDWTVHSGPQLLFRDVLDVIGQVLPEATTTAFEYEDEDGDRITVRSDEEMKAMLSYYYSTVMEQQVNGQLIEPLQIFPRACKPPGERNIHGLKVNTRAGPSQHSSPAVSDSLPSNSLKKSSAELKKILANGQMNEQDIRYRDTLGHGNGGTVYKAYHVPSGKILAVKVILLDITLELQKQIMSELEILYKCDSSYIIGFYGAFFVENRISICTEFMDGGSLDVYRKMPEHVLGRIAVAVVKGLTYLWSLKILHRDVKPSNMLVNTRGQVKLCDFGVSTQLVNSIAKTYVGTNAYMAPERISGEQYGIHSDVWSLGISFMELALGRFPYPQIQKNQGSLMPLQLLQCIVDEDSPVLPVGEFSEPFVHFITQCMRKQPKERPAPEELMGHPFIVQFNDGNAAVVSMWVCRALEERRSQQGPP
T11 sequence (P35968 20-1356): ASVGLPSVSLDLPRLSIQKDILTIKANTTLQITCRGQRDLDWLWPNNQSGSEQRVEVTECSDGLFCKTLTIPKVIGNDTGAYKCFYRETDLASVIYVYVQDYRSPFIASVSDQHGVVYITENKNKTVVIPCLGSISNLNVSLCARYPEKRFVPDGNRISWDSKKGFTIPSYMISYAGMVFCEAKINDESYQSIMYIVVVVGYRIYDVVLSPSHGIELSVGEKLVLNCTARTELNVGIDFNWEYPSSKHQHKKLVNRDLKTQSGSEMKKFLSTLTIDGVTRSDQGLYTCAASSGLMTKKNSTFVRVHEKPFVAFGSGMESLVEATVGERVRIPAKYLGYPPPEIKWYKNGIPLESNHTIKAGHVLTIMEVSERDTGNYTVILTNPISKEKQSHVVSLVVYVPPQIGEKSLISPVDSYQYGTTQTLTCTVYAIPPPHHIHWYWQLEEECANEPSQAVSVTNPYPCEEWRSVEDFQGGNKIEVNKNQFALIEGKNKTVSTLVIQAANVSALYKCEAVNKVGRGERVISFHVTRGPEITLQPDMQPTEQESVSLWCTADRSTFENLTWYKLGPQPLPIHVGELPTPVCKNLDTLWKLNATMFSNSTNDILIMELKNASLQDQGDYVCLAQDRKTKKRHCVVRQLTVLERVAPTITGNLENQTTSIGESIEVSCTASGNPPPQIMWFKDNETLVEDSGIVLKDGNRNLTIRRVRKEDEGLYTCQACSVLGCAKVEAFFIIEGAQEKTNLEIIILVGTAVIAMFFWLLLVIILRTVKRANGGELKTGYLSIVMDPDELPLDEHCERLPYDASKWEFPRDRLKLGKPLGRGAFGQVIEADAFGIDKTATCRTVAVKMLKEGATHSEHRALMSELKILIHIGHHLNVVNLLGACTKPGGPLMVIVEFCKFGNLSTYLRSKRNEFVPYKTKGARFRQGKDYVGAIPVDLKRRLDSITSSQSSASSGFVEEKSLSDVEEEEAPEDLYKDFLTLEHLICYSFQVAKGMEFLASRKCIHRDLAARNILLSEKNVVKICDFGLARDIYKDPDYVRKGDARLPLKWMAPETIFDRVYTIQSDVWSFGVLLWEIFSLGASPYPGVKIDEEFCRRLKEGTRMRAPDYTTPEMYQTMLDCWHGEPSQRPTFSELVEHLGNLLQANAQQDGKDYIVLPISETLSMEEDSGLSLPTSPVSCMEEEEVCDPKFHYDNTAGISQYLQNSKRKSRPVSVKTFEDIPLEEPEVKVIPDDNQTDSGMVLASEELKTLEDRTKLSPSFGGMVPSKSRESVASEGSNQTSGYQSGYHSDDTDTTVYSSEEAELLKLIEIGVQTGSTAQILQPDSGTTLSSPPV

In the case of `NCC(N)C(=O)Nc1ccc(-c2nc3ccccc3s2)cc1` (stereo not drawn) [MBP-11901], the IC50 (MDA-MB-231) is reported as 62 ± 6.5 µM, the colony formation (HepG2 cells; HepG2, 5 μM) is reported as “significant reduction” and the colony growth (HepG2 cells; HepG2, high concentrations, compared with sorafenib) is reported as “almost no colony growth was observed”. For the same molecule, the kinase phosphorylation [1] was “inhibited”, the “animals in which tumors had completely disappeared” value (Hep3B xenograft tumor) was 1 out of 6 and the average tumor volume (Hep3B xenograft tumor; start about 300 mm^3, saline approx. 1400 mm^3) was “approximately 100 mm^3”. The tumor disappearance (Huh-7 xenograft tumor) was “did not result in tumor disappearance”, the tumor weight (Huh-7 xenograft tumor) was “significantly reduced” and the remaining binding at 10 µM (FLT3(D835H)) was 33%. For the same molecule, the remaining binding at 10 µM (FLT3(D835V)) was 1.6%, the remaining binding at 10 µM (FLT3(D835Y)) was 11% and the remaining binding at 10 µM (FLT3(K663Q)) was 7.5%. The remaining binding at 10 µM (FLT3(N841I)) was 20%, the remaining binding at 10 µM (FLT3- autoinhibited) was 19% and the remaining binding at 10 µM (FLT3; [2]) was 16%. It also gave a Kd (FLT3; FLT3, mean ± S.D. (n = 2)) of 295 ± 5 nM, a remaining binding at 10 µM (MAP4K2; [2]) of 8.6% and a Kd (MAP4K2; MAP4K2, mean ± S.D. (n = 2)) of 1100 nM. The remaining binding at 10 µM (MEK5; [2]) was 3.3%, the Kd (MEK5; MEK5) was greater than 30 µM and the remaining binding at 10 µM (PDGFRβ; [2]) was 33%. It also gave a Kd (PDGFRβ; PDGFRβ, mean ± S.D. (n = 2)) of 4 ± 0.22 µM, a remaining binding at 10 µM (VEGFR2; [2]) of 30% and a Kd (VEGFR2; VEGFR2, mean ± S.D. (n = 2)) of 3.55 ± 0.25 µM. For the same molecule, the Toxic deaths/total (HepG2 xenograft tumor; 82 mg/kg oral 1T/2D, 42 d) was 0/6, the “Tumor growth inhibition rate (%)” value (HepG2 xenograft tumor; 82 mg/kg oral 1T/2D) was 99.82 ± 0.33% and the “Body weight loss rate (%)” value (HepG2 xenograft tumor; 82 mg/kg oral 1T/2D) was 1.85 ± 3.70%. The Toxic deaths/total (HepG2 xenograft tumor; 82 mg/kg oral 1T/3D, 42 d) was 0/6, the “Tumor growth inhibition rate (%)” value (HepG2 xenograft tumor; 82 mg/kg oral 1T/3D) was 99.51 ± 0.81% and the “Body weight loss rate (%)” value (HepG2 xenograft tumor; 82 mg/kg oral 1T/3D) was −0.43 ± 3.76 %. For the same molecule, the Toxic deaths/total (HepG2 xenograft tumor; 82 mg/kg oral 1T/4D, 42 d) was 0/6, the “Tumor growth inhibition rate (%)” value (HepG2 xenograft tumor; 82 mg/kg oral 1T/4D) was 99.48 ± 0.60% and the “Body weight loss rate (%)” value (HepG2 xenograft tumor; 82 mg/kg oral 1T/4D) was −4.29 ± 0.59 %. For the same molecule, the “histological analysis of the liver and kidney” value (HepG2 xenograft tumor; 42 d) was “no apparent toxicity”, the “animals in which tumors had disappeared, out of a total of 6” value (HepG2 xenograft tumor; all MBP-11901 groups, after 42 d) was 3–4 and the GPT values (HepG2 xenograft tumor; serum, MBP-11901 1T/3D and 1T/4D groups) was “significantly outside the normal range”.
